In patent EP3046573B1, “AMYLIN ANALOGUES” (Zealand Pharma A/S, priority 2013, dated 2015):
Read-outs that look alike come from different tables or passages of the source. Numbered stars: 1 amine (or outer) side, 2 acyl side, 3 side chain; on linkers, the order of the positions; unused ones are H or OH. Bridge positions count the residues as written; N and C are the ends. Square brackets hold non-standard residues; d marks the D form. Peptide text beside a SMILES is read from it. * marks the point of attachment. C20 diacid = O=C(O)CCCCCCCCCCCCCCCCCCC(=O)*; γGlu = O=C(O)[C@H](CCC(=O)[*:2])N[*:1]; NMeI = CC[C@H](C)[C@H](NC)C(=O)O; NMeA = CN[C@@H](C)C(=O)O; Sar = CNCC(=O)O

Key:
[1] = target: T1, human amylin receptor 3 (hAMYR3) consisting of hCTR2 co-expressed with human Receptor Activity Modifying Protein 3 (hRAMP3) (Homo sapiens, UniProt O60896+P30988); assay: hAMYR3 assay: induction of cAMP (AlphaScreen cAMP Assay kit) in COS7 cells expressing hAMYR3; assay type: cell-based
T1 construct: expressed in transfected cells
T1 sequence (P30988 25-474): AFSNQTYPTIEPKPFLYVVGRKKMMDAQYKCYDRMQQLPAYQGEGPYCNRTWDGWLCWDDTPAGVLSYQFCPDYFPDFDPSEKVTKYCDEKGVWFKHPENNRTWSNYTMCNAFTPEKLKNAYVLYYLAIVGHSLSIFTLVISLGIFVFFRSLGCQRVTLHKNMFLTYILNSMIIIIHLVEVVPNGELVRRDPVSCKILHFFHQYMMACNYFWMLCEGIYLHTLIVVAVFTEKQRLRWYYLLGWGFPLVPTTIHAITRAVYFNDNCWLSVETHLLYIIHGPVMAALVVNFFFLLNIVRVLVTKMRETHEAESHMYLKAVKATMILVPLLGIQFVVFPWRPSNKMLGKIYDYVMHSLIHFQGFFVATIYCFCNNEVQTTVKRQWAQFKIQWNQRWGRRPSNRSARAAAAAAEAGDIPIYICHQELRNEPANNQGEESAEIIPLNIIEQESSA
T1 sequence (O60896 24-148 partner): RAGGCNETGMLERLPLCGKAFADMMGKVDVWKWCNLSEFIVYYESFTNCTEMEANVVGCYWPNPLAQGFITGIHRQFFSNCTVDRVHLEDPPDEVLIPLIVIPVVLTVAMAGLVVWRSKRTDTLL
Summary of the method: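 Stable COS7 clone co-expressing hCTR2 and hRAMP3, stimulated 15 min at 37° C with increasing peptide in Tyrode buffer pH 7.4 with 100 µM IBMX and 0.1% casein. cAMP measured by AlphaScreen after lysis; EC50 and % efficacy versus pramlintide from 4PL fit.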

[2] = target: T2, human calcitonin receptor (hCTR2) (Homo sapiens, UniProt P30988); assay: hCTR2 assay: induction of cAMP (AlphaScreen cAMP Assay kit) in COS7 cells expressing hCTR2; assay type: cell-based
T2 construct: expressed in transfected cells
T2 sequence (P30988 25-474): T1 sequence (P30988 25-474)
Summary of the method: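 Stable RAMP-naive COS7 clone expressing hCTR2 was stimulated with increasing peptide concentrations in Tyrode buffer (pH 7.4) with 100 µM IBMX and 0.1% casein for 15 min at 37° C. Cells were lysed and cAMP measured by AlphaScreen. EC50 and efficacy relative to pramlintide came from 4PL curve fits.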

[3] = Solubility assessment (turbidity absorbance at 325 nm); assay type: physicochemical; conditions: stock 2 mg/ml diluted 1:1, ambient temperature (typically 25°C), n=1; for Solubility, Acetate buffer pH 4: 100 mM acetate buffer pH 4.0; for Solubility, Acetate buffer pH 5: 100 mM acetate buffer pH 5.0; for Solubility, Histidine buffer pH 6: 100 mM histidine buffer pH 6.0; for Solubility, Histidine buffer pH 7: 100 mM histidine buffer pH 7.0; for Solubility, Phosphate buffer pH 6: 100 mM phosphate buffer pH 6.0; for Solubility, Phosphate buffer pH 7: 100 mM phosphate buffer pH 7.0; for Solubility, Phosphate buffer pH 7.5: 100 mM phosphate buffer pH7.5
Summary of the method: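 Peptide stock (2 mg/ml, water pH 2.5) diluted 1:1 into 100 mM acetate (pH 4.0, 5.0), histidine (pH 6.0, 7.0) or phosphate (pH 6.0–7.5) buffer; absorbance at 325 nm read at about 25°C, n=1. A325 ≤ 0.02 taken as solubility ≥ 1 mg/ml.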

[4] = cAMP induction in COS7 cells expressing hCTR2, average of a minimum of 3 determinations, read-out: hCTR2 EC50

SMILES	EC50 [1]	EC50 [2]	Solubility, Acetate buffer pH 4 [3]	Solubility, Acetate buffer pH 5 [3]	Solubility, Histidine buffer pH 6 [3]	Solubility, Histidine buffer pH 7 [3]	Solubility, Phosphate buffer pH 6 [3]	Solubility, Phosphate buffer pH 7 [3]	Solubility, Phosphate buffer pH 7.5 [3]	EC50 ([1]; cAMP induction in COS7 cells expressing hAMYR3, average of a minimum of 3 determinations, read-out: hAMY R3 EC50)	EC50 [2, 4]
CC[C@H](C)[C@@H](C(=O)N[C@@H](CC(C)C)C(=O)N[C@@H](CO)C(=O)N[C@@H](CO)C(=O)N[C@H](C(=O)N[C@@H](CC(N)=O)C(=O)N[C@H](C(=O)NCC(=O)N[C@@H](CO)C(=O)N[C@@H](CC(N)=O)C(=O)N[C@H](C(=O)N[C@@H](Cc1ccc(O)cc1)C(=O)NC)[C@@H](C)O)C(C)C)[C@@H](C)O)N(C)C(=O)[C@H](C)NC(=O)CN(C)C(=O)[C@H](Cc1ccccc1)NC(=O)[C@H](CC(N)=O)NC(=O)[C@H](CC(N)=O)NC(=O)[C@H](CO)NC(=O)[C@H](CO)NC(=O)[C@H](CCCNC(=N)N)NC(=O)[C@H](Cc1c[nH]cn1)NC(=O)[C@H](CC(C)C)NC(=O)[C@H](Cc1ccccc1)NC(=O)[C@H](CCC(=O)O)NC(=O)[C@H](C)NC(=O)[C@H](CC(C)C)NC(=O)[C@H](CCCNC(=N)N)NC(=O)[C@H](CCC(N)=O)NC(=O)[C@@H](NC(=O)[C@H](C)NC(=O)[C@@H]1CSSC[C@H](NC(=O)[C@H](CCCNC(=N)N)NC(=O)CC[C@H](NC(=O)CCCCCCCCCCCCCCCCCCC(=O)O)C(=O)O)C(=O)N[C@@H](CC(N)=O)C(=O)N[C@@H]([C@@H](C)O)C(=O)N[C@@H](C)C(=O)N[C@@H]([C@@H](C)O)C(=O)N1)[C@@H](C)O [Compound 154, [19CD]-isoGlu-RC()NTATC()ATQRLAEFLHRSSNNF-Gly(Me)-A-Ile(Me)-LSSTNVGSNTY-NHMe] ({C20 diacid-γGlu}-RCNTATCATQRLAEFLHRSSNNF[Sar]A[NMeI]LSSTNVGSNTY-NHMe; disulfide 2-7)	6.3 nM	0.55 nM	SS (SS indicates solubility ≥ 1mg/ml)	SS (SS indicates solubility ≥ 1mg/ml)	SS (SS indicates solubility ≥ 1mg/ml)	II (II indicates solubility ≤ 1 mg/ml)	II (II indicates solubility ≤ 1 mg/ml)	II (II indicates solubility ≤ 1 mg/ml)	II (II indicates solubility ≤ 1 mg/ml)	–	–
CC[C@H](C)[C@@H](C(=O)N[C@@H](CC(C)C)C(=O)N[C@@H](CO)C(=O)N[C@@H](CO)C(=O)N[C@H](C(=O)N[C@@H](CC(N)=O)C(=O)N[C@H](C(=O)NCC(=O)N[C@@H](CO)C(=O)N[C@@H](CC(N)=O)C(=O)N[C@H](C(=O)N(C)[C@@H](C)C(N)=O)[C@@H](C)O)C(C)C)[C@@H](C)O)N(C)C(=O)[C@H](C)NC(=O)CN(C)C(=O)[C@H](Cc1ccccc1)NC(=O)[C@H](CC(N)=O)NC(=O)[C@H](CC(N)=O)NC(=O)[C@H](CO)NC(=O)[C@H](CO)NC(=O)[C@H](CCCNC(=N)N)NC(=O)[C@H](Cc1c[nH]cn1)NC(=O)[C@H](CC(C)C)NC(=O)[C@H](Cc1ccccc1)NC(=O)[C@H](CCC(=O)O)NC(=O)[C@H](C)NC(=O)[C@H](CC(C)C)NC(=O)[C@H](CCCNC(=N)N)NC(=O)[C@H](CCC(N)=O)NC(=O)[C@@H](NC(=O)[C@H](C)NC(=O)[C@@H]1CSSC[C@H](NC(=O)[C@H](CCCNC(=N)N)NC(=O)CC[C@H](NC(=O)CCCCCCCCCCCCCCCCCCC(=O)O)C(=O)O)C(=O)N[C@@H](CC(N)=O)C(=O)N[C@@H]([C@@H](C)O)C(=O)N[C@@H](C)C(=O)N[C@@H]([C@@H](C)O)C(=O)N1)[C@@H](C)O [Compound 102, [19CD]-isoGlu-RC()NTATC()ATQRLAEFLHRSSNNF-Gly(Me)-A-Ile(Me)-LSSTNVGSNT-Ala(Me)-NH2] ({C20 diacid-γGlu}-RCNTATCATQRLAEFLHRSSNNF[Sar]A[NMeI]LSSTNVGSNT[NMeA]-NH2; disulfide 2-7)	1 nM	0.42 nM	SS (SS indicates solubility ≥ 1mg/ml)	II (II indicates solubility ≤ 1 mg/ml)	SS (SS indicates solubility ≥ 1mg/ml)	SS (SS indicates solubility ≥ 1mg/ml)	II (II indicates solubility ≤ 1 mg/ml)	SS (SS indicates solubility ≥ 1mg/ml)	SS (SS indicates solubility ≥ 1mg/ml)	–	–
CC[C@H](C)[C@@H](C(=O)N[C@@H](CC(C)C)C(=O)N[C@@H](CO)C(=O)N[C@@H](CO)C(=O)N[C@H](C(=O)N[C@@H](CCC(=O)O)C(=O)N[C@H](C(=O)NCC(=O)N[C@@H](CO)C(=O)N[C@@H](CCC(=O)O)C(=O)N[C@H](C(=O)N1CCC[C@H]1C(N)=O)[C@@H](C)O)C(C)C)[C@@H](C)O)N(C)C(=O)[C@H](C)NC(=O)CN(C)C(=O)[C@H](Cc1ccccc1)NC(=O)[C@H](CO)NC(=O)[C@H](CO)NC(=O)[C@H](CO)NC(=O)[C@H](CO)NC(=O)[C@H](CCCNC(=N)N)NC(=O)[C@H](Cc1c[nH]cn1)NC(=O)[C@H](CC(C)C)NC(=O)[C@H](Cc1ccccc1)NC(=O)[C@H](CCC(=O)O)NC(=O)[C@H](C)NC(=O)[C@H](CC(C)C)NC(=O)[C@H](CCCNC(=N)N)NC(=O)[C@H](CCC(N)=O)NC(=O)[C@@H](NC(=O)[C@H](C)NC(=O)[C@@H]1CSSC[C@H](NC(=O)[C@H](CCCNC(=N)N)NC(=O)CC[C@H](NC(=O)CCCCCCCCCCCCCCCCCCC(=O)O)C(=O)O)C(=O)N[C@@H](CC(=O)O)C(=O)N[C@@H]([C@@H](C)O)C(=O)N[C@@H](C)C(=O)N[C@@H]([C@@H](C)O)C(=O)N1)[C@@H](C)O [Compound 127, [19CD]-isoGlu-RC()DTATC()ATQRLAEFLHRSSSSF-Gly(Me)-A-Ile(Me)-LSSTEVGSETP-NH2] ({C20 diacid-γGlu}-RCDTATCATQRLAEFLHRSSSSF[Sar]A[NMeI]LSSTEVGSETP-NH2; disulfide 2-7)	–	–	SS (SS indicates solubility ≥ 1mg/ml)	SS (SS indicates solubility ≥ 1mg/ml)	SS (SS indicates solubility ≥ 1mg/ml)	SS (SS indicates solubility ≥ 1mg/ml)	SS (SS indicates solubility ≥ 1mg/ml)	SS (SS indicates solubility ≥ 1mg/ml)	SS (SS indicates solubility ≥ 1mg/ml)	0.58 nM	0.19 nM
CC[C@H](C)[C@@H](C(=O)N[C@@H](CC(C)C)C(=O)N[C@@H](CO)C(=O)N[C@@H](CO)C(=O)N[C@H](C(=O)N[C@@H](CCC(=O)O)C(=O)N[C@H](C(=O)NCC(=O)N[C@@H](CO)C(=O)N[C@@H](CCC(=O)O)C(=O)N[C@H](C(=O)N1CCC[C@H]1C(N)=O)[C@@H](C)O)C(C)C)[C@@H](C)O)N(C)C(=O)[C@H](C)NC(=O)CN(C)C(=O)[C@H](Cc1ccccc1)NC(=O)[C@H](CO)NC(=O)[C@H](CO)NC(=O)[C@H](CO)NC(=O)[C@H](CO)NC(=O)[C@H](CCCNC(=N)N)NC(=O)[C@H](Cc1c[nH]cn1)NC(=O)[C@H](CC(C)C)NC(=O)[C@H](Cc1ccccc1)NC(=O)[C@H](CCC(=O)O)NC(=O)[C@H](C)NC(=O)[C@H](CC(C)C)NC(=O)[C@H](CCCNC(=N)N)NC(=O)[C@H](C)NC(=O)[C@@H](NC(=O)[C@H](C)NC(=O)[C@@H]1CSSC[C@H](NC(=O)[C@H](CCCNC(=N)N)NC(=O)CC[C@H](NC(=O)CCCCCCCCCCCCCCCCCCC(=O)O)C(=O)O)C(=O)N[C@@H](CCC(=O)O)C(=O)N[C@@H]([C@@H](C)O)C(=O)N[C@@H](C)C(=O)N[C@@H]([C@@H](C)O)C(=O)N1)[C@@H](C)O [Compound 146, [19CD]-isoGlu-RC()ETATC()ATARLAEFLHRSSSSF-Gly(Me)-A-Ile(Me)-LSSTEVGSETP-NH2] ({C20 diacid-γGlu}-RCETATCATARLAEFLHRSSSSF[Sar]A[NMeI]LSSTEVGSETP-NH2; disulfide 2-7)	0.15 nM	–	SS (SS indicates solubility ≥ 1mg/ml)	SS (SS indicates solubility ≥ 1mg/ml)	SS (SS indicates solubility ≥ 1mg/ml)	SS (SS indicates solubility ≥ 1mg/ml)	SS (SS indicates solubility ≥ 1mg/ml)	SS (SS indicates solubility ≥ 1mg/ml)	SS (SS indicates solubility ≥ 1mg/ml)	–	0.092 nM
